PubChem BioAssay AID200 (DTP/NCI, 2004)
Values joined by “and” are separate entries in the source; they are usually repeats but may differ in a detail not shown here. Identical values can stand only once. Inconclusive results and toxic doses are left out. The calls were made as follows: active = survival T/C of 150% or more; inactive = T/C below 125% in these data.

Test system: B6C3F1 mice, B16 melanoma ip, median survival T/C
Assay: NCI In Vivo Anticancer Drug Screen. Data for tumor model B16 Melanoma (intraperitoneal) in B6C3F1 mice
Conditions: endpoint: median survival time, schedule: Q01DX009 (ip), higher = longer survival
Outline: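 Values are T/C ratios: the measurement in treated animals divided by that in vehicle-treated controls, using survival or tumor size in mice carrying transplantable tumors.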

[1] = dose: 25.0 mg/kg/injection, vehicle: saline
[2] = dose: 50.0 mg/kg/injection, vehicle: saline
[3] = dose: 100.0 mg/kg/injection, vehicle: saline
[4] = dose: 200.0 mg/kg/injection, vehicle: saline
[5] = dose: 400.0 mg/kg/injection, vehicle: saline
[6] = dose: 1.25 mg/kg/injection, vehicle: saline with Tween-80
[7] = dose: 2.5 mg/kg/injection, vehicle: saline with Tween-80
[8] = dose: 5.0 mg/kg/injection, vehicle: saline with Tween-80
[9] = dose: 12.5 mg/kg/injection, vehicle: saline with Tween-80
[10] = dose: 25.0 mg/kg/injection, vehicle: saline with Tween-80
[11] = dose: 50.0 mg/kg/injection, vehicle: saline with Tween-80
[12] = dose: 100.0 mg/kg/injection, vehicle: saline with Tween-80
[13] = dose: 200.0 mg/kg/injection, vehicle: saline with Tween-80
[14] = dose: 12.5 mg/kg/injection, vehicle: saline
[15] = dose: 400.0 mg/kg/injection, vehicle: saline with Tween-80

Measured: T/C

O=C1C=CN(C2OC(CO)C(O)C2O)C(=O)C1 (stereo not drawn)
inactive: [1] 97 % of control | [2] 108 % of control | [3] 102 % of control | [4] 105 % of control | [5] 115 % of control

Cc1nc2ccccc2c(C(=O)NO)[n+]1[O-]
inactive: dose: 3.13 micrograms/kg/injection, vehicle: other 100 % of control | dose: 6.25 micrograms/kg/injection, vehicle: other 104 % of control | dose: 12.5 micrograms/kg/injection, vehicle: other 122 % of control | dose: 25.0 micrograms/kg/injection, vehicle: other 110 % of control

O=C/C(Cl)=C(/Cl)C(=O)O
inactive: [6] 99 % of control | [7] 86 % of control | [8] 89 % of control | dose: 10.0 mg/kg/injection, vehicle: saline with Tween-80 92 % of control | dose: 20.0 mg/kg/injection, vehicle: saline with Tween-80 102 % of control

CCOC(=O)Nc1cc2c(c(N)n1)N=C(c1ccccc1)CN2
inactive: [6] 96 % of control | [7] 102 % of control | [8] 107 % of control

O=C(CN1CCOCC1)Nc1nc(-c2ccc(Cl)cc2)cs1
inactive: [9] 105 % of control | [10] 94 % of control | [11] 96 % of control | [12] 103 % of control | [13] 98 % of control

COc1ccc2c(c1OC(C)=O)-c1cc(O)cc3c1C(C2)N(C(=O)CN(CCCl)CCCl)CC3 (stereo not drawn)
active: dose: 3.12 mg/kg/injection, vehicle: saline with Tween-80 164 % of control | dose: 6.25 mg/kg/injection, vehicle: saline with Tween-80 153 % of control | [9] 207 % of control

N#CN=[N+]([O-])c1ccc(C(=O)O)cc1
inactive: dose: 1.87 mg/kg/injection, vehicle: Klucel (hydroxypropylcellulose) (HPC) 99 % of control and 101 % of control | dose: 3.75 mg/kg/injection, vehicle: Klucel (hydroxypropylcellulose) (HPC) 96 % of control and 105 % of control | dose: 7.5 mg/kg/injection, vehicle: Klucel (hydroxypropylcellulose) (HPC) 95 % of control and 102 % of control | dose: 15.0 mg/kg/injection, vehicle: Klucel (hydroxypropylcellulose) (HPC) 89 % of control and 91 % of control | dose: 30.0 mg/kg/injection, vehicle: Klucel (hydroxypropylcellulose) (HPC) 90 % of control and 97 % of control

CCOC(=O)N1CCN(CCCCCCOc2ccc(C3CCCCC3)cc2)CC1
inactive: dose: 1.56 mg/kg/injection, vehicle: saline 110 % of control | dose: 3.13 mg/kg/injection, vehicle: saline 93 % of control | dose: 6.25 mg/kg/injection, vehicle: saline 101 % of control | [14] 97 % of control and 105 % of control

CN(C)c1ccc(C(=C2C=CC(=[N+](C)C)C=C2)c2ccc(N(C)C)cc2)cc1 (tested in a mixture with another compound)
inactive: dose: 0.62 mg/kg/injection, vehicle: saline 95 % of control | dose: 1.25 mg/kg/injection, vehicle: saline 105 % of control | dose: 2.5 mg/kg/injection, vehicle: saline 104 % of control

CCCOC(=O)c1ccc(O)cc1
inactive: [9] 103 % of control | [10] 109 % of control | [11] 109 % of control | [12] 89 % of control | [13] 107 % of control | [15] 100 % of control

Nc1ncn(C2CC(O)C(CO)O2)c(=O)n1 (stereo not drawn)
inactive: dose: 0.25 mg/kg/injection, vehicle: Klucel (hydroxypropylcellulose) (HPC) 86 % of control | dose: 0.25 mg/kg/injection, vehicle: saline 117 % of control | dose: 15.62 micrograms/kg/injection, vehicle: Klucel (hydroxypropylcellulose) (HPC) 87 % of control | dose: 31.25 micrograms/kg/injection, vehicle: Klucel (hydroxypropylcellulose) (HPC) 86 % of control | dose: 125.0 micrograms/kg/injection, vehicle: Klucel (hydroxypropylcellulose) (HPC) 114 % of control | dose: 250.0 micrograms/kg/injection, vehicle: Klucel (hydroxypropylcellulose) (HPC) 97 % of control

CC[PH+](CC)CC[S-].CC[PH+](CC)CC[S-].[Au+].[Au+]
inactive: dose: 5.0 mg/kg/injection, vehicle: Klucel (hydroxypropylcellulose) (HPC) 94 % of control | dose: 10.0 mg/kg/injection, vehicle: Klucel (hydroxypropylcellulose) (HPC) 97 % of control | dose: 20.0 mg/kg/injection, vehicle: Klucel (hydroxypropylcellulose) (HPC) 97 % of control | dose: 40.0 mg/kg/injection, vehicle: Klucel (hydroxypropylcellulose) (HPC) 95 % of control

CSCCC(NC(=O)c1ccccc1)C(=O)O (stereo not drawn)
inactive: [3] 93 % of control

CCc1nc(N)nc(N)c1-c1ccc(Cl)c(N=[N+]=[N-])c1
active: dose: 200.0 mg/kg/injection, vehicle: distilled water + Tween-80 157 % of control and 169 % of control
inactive: dose: 12.5 mg/kg/injection, vehicle: distilled water + Tween-80 100 % of control | dose: 25.0 mg/kg/injection, vehicle: distilled water + Tween-80 98 % of control and 102 % of control | dose: 50.0 mg/kg/injection, vehicle: distilled water + Tween-80 108 % of control (2×) and 109 % of control | dose: 100.0 mg/kg/injection, vehicle: distilled water + Tween-80 122 % of control

O=C1C2CC(CN3CCCCC23)C2CCCCN12 (stereo not drawn)
inactive: dose: 37.5 mg/kg/injection, vehicle: saline 104 % of control | dose: 75.0 mg/kg/injection, vehicle: saline 105 % of control | dose: 150.0 mg/kg/injection, vehicle: saline 97 % of control

COC(=O)[C@@]12OC[C@]34[C@H]([C@@H](O)[C@@H]1O)[C@@]1(C)CC(=O)C(O)=C(C)[C@@H]1C[C@H]3OC(=O)[C@H](OC(=O)/C=C(\C)C1(C)CO1)[C@@H]24 (stereo partly drawn)
inactive: dose: 0.01 mg/kg/injection, vehicle: saline + alcohol 108 % of control | dose: 0.03 mg/kg/injection, vehicle: saline + alcohol 116 % of control

CC1(C)OC1CS(=O)c1ccccc1 (stereo not drawn)
inactive: [9] 96 % of control | [14] 93 % of control | [10] 99 % of control | [1] 98 % of control | [11] 102 % of control | [2] 96 % of control | [12] 95 % of control | [3] 98 % of control | [13] 90 % of control | [4] 98 % of control | [15] 89 % of control | [5] 93 % of control

O=NNc1cccnc1
inactive: dose: 6.25 mg/kg/injection, vehicle: water 107 % of control | dose: 12.5 mg/kg/injection, vehicle: water 121 % of control | dose: 25.0 mg/kg/injection, vehicle: water 111 % of control | dose: 50.0 mg/kg/injection, vehicle: water 100 % of control | dose: 100.0 mg/kg/injection, vehicle: water 107 % of control

CC[C@@]1(O)C[C@H](OC2CC(N(C)C)C(OC3CC(O)C(OC4CCC(=O)C(C)O4)C(C)O3)C(C)O2)c2c(cc3c(c2O)C(=O)c2c(O)cccc2C3=O)[C@H]1C(=O)OC (stereo partly drawn)
active: dose: 3.0 mg/kg/injection, vehicle: saline with Tween-80 151 % of control

NC(CSCc1ccccc1)C(=O)Nc1ccc([N+](=O)[O-])cc1 (stereo not drawn)
inactive: dose: 100.0 mg/kg/injection, vehicle: Klucel (hydroxypropylcellulose) (HPC) 115 % of control | dose: 200.0 mg/kg/injection, vehicle: Klucel (hydroxypropylcellulose) (HPC) 111 % of control | dose: 400.0 mg/kg/injection, vehicle: Klucel (hydroxypropylcellulose) (HPC) 116 % of control

CC(C(C(=O)N1CCCCC1)N1CCCCC1)N1CCCCC1 (stereo not drawn)
inactive: [12] 94 % of control | [13] 95 % of control | [15] 103 % of control
